13 compounds from US11066425B1, “Oxo-substituted compound” (SUMITOMO DAINIPPON PHARMA CO., LTD., priority 2018, dated 2021) can be followed below.

Values joined by “and” are separate entries in the source; they are usually repeats but may differ in a detail not shown here. Identical values can stand only once. Counter-ions that a name gives are not always drawn.

The test system of assay [1] is β-lactamase producing bacteria. The experiment in a line: Test Example 3: MIC of meropenem (MEPM) combined with test compound at fixed 4 μg/mL, broth microdilution, ratio to MEPM alone. In kind it is cell-based. As to conditions: for MIC of MEPM in combination with a test compound: test compound at fixed 4 μg/mL, numerator of the cell; for MIC of MEPM alone: no test compound, denominator of the cell, comparator for the example, in µg/mL. As to the method:
Test Example 3: Evaluation of Minimum Inhibitory Concentration (MIC) of MEPM Against β-Lactamase Producing Bacteria
To evaluate the β-lactamase inhibitory activity of test compounds, the effect of combination of a test compound and a β-lactam agent against β-lactamase producing bacteria was evaluated. Meropenem (MEPM) was used as a β-lactam antimicrobial agent. The minimum inhibitory concentration (MIC) of MEPM against β-lactamase producing bacteria when a test compound was added at a fixed concentration (4 μg/mL) was measured by broth microdilution method (common ratio: 2).
For orientation: Broth dilution looks for growth in wells or tubes with falling amounts of substance.

The subject of assay [2] is β-lactamase producing bacteria. The experiment in a line: Test Example 1: MIC of meropenem (MEPM) combined with test compound at fixed 4 μg/mL, broth microdilution. The conditions noted are these: relative to MEPM alone. In kind it is cell-based. The protocol: Test Example 1: Evaluation of Minimum Inhibitory Concentration (MIC) of MEPM Against β-Lactamase Producing Bacteria
To evaluate the β-lactamase inhibitory activity of test compounds, the effect of combination of a test compound and a β-lactam agent against β-lactamase producing bacteria was evaluated. Meropenem (MEPM) was used as a β-lactam antimicrobial agent. The minimum inhibitory concentration (MIC) of MEPM against β-lactamase producing bacteria when a test compound was added at a fixed concentration (4 μg/mL) was measured by broth microdilution method (common ratio: 2). MIC of MEPM decreasing to less than 1/32 in combination with a test compound is indicated by A, decreasing from 1/32 to 1/16 is indicated by B, decreasing from ⅛ to ¼ is indicated by C, and decreasing to ½ or others are indicated by D. “-” represents untested cases.

The mark [3] stands for this setting: K. pneumoniae ATCC BAA-2344 (KPC).
Setting [4] is: K. pneumoniae ATCC BAA-2524 (OXA-48).

Turning to “4,4-dihydroxy-8-({1-[3-(pyrrolidin-2-yl)propanoyl]azetidin-3-yl}oxy)-5-oxa-4-boranuidabicyclo[4.4.0]deca-l(6),7,9-triene-7-carboxylic acid disodium salt [Example 118]”, the MIC of MEPM in combination with a test compound in assay [1] (setting [3]) and in assay [1] (setting [4]) was at most 0.063 µg/mL each time.
With `N[C@H](Cc1cnc[nH]1)C(=O)N1CC(Oc2ccc3c(c2C(=O)O)O[B-](O)(O)CC3)C1` [Example 27, 8-[(1-D-histidylazetidin-3-yl)oxy]-4,4-dihydroxy-5-oxa-4-boranuidabicyclo[4.4.0]deca-l(6),7,9-triene-7-carboxylic acid disodium salt], in assay [2], the “Decrease of MIC of MEPM in combination with a test compound, K. pneumoniae ATCC BAA-2344 (KPC)” value (“Decrease … K. pneumoniae ATCC BAA-2344 (KPC)” for short) is listed as “A (MIC of MEPM decreasing to less than 1/32 in combination with a test compound is indicated by A)” and the “Decrease of MIC of MEPM in combination with a test compound, K. pneumoniae ATCC BAA-2524 (OXA-48)” value (from here on “Decrease of MIC of MEPM … (OXA-48)”) was “B (decreasing from 1/32 to 1/16 is indicated by B)”.
With `CC(C)[C@@H](N)C(=O)N1CC(Oc2ccc3c(c2C(=O)O)O[B-](O)(O)CC3)C1` [Example 28, 4,4-dihydroxy-8-[(1-D-valylazetidin-3-yl)oxy]-5-oxa-4-boranuidabicyclo[4.4.0]deca-l(6),7,9-triene-7-carboxylic acid disodium salt], in assay [2], the “Decrease of MIC of MEPM in combination with a test compound, E. coli ATCC BAA-2340 (KPC)” value was “A (MIC of MEPM decreasing to less than 1/32 in combination with a test compound is indicated by A)”; the “Decrease … K. pneumoniae ATCC BAA-2344 (KPC)” value is on record as “A (MIC of MEPM decreasing to less than 1/32 in combination with a test compound is indicated by A)”; the “Decrease of MIC of MEPM … (OXA-48)” value is given as “B (decreasing from 1/32 to 1/16 is indicated by B)”.
Regarding `N[C@@H](Cc1cnc[nH]1)C(=O)N1CC(Oc2ccc3c(c2C(=O)O)O[B-](O)(O)CC3)C1` [Example 29, 8-[(1-L-histidylazetidin-3-yl)oxy]-4,4-dihydroxy-5-oxa-4-boranuidabicyclo[4.4.0]deca-l(6),7,9-triene-7-carboxylic acid disodium salt], in assay [2], the “Decrease … K. pneumoniae ATCC BAA-2344 (KPC)” value is reported as “A (MIC of MEPM decreasing to less than 1/32 in combination with a test compound is indicated by A)” and the “Decrease of MIC of MEPM … (OXA-48)” value is “B (decreasing from 1/32 to 1/16 is indicated by B)”.
Turning to `CCN1CCN(C(=O)N[C@@H](C(=O)N2CC(Oc3ccc4c(c3C(=O)O)O[B-](O)(O)CC4)C2)c2ccccc2)C(=O)C1=O` [Example 30, 8-[(1-{(2R)-2-[(4-ethyl-2,3-dioxopiperazine-1-carbonyl)amino]-2-phenylacetyl}azetidin-3-yl)oxy]-4,4-dihydroxy-5-oxa-4-boranuidabicyclo[4.4.0]deca-l(6),7,9-triene-7-carboxylic acid disodium salt], in assay [2], the “Decrease … K. pneumoniae ATCC BAA-2344 (KPC)” value is reported as “A (MIC of MEPM decreasing to less than 1/32 in combination with a test compound is indicated by A)” and the “Decrease of MIC of MEPM … (OXA-48)” value is on record as “B (decreasing from 1/32 to 1/16 is indicated by B)”.
`O=C(O)c1c(OC2CN(C(=O)[C@H]3CCCN3)C2)ccc2c1O[B-](O)(O)CC2` [Example 31, 4,4-dihydroxy-8-[(1-D-prolylazetidin-3-yl)oxy]-5-oxa-4-boranuidabicyclo[4.4.0]deca-l(6),7,9-triene-7-carboxylic acid disodium salt]: in assay [2], the “Decrease … K. pneumoniae ATCC BAA-2344 (KPC)” value is “A (MIC of MEPM decreasing to less than 1/32 in combination with a test compound is indicated by A)” and the “Decrease of MIC of MEPM … (OXA-48)” value was “B (decreasing from 1/32 to 1/16 is indicated by B)”.
Taken in the same sequence, the figures for `O=C(O)c1c(OC2CN(C(=O)[C@@H]3CCCN3)C2)ccc2c1O[B-](O)(O)CC2` [Example 32, 4,4-dihydroxy-8-[(1-L-prolylazetidin-3-yl)oxy]-5-oxa-4-boranuidabicyclo[4.4.0]deca-l(6),7,9-triene-7-carboxylic acid disodium salt] were “A (MIC of MEPM decreasing to less than 1/32 in combination with a test compound is indicated by A)” and “B (decreasing from 1/32 to 1/16 is indicated by B)”.
Regarding `NCCc1cn(CC(=O)N2CC(Oc3ccc4c(c3C(=O)O)O[B-](O)(O)CC4)C2)cn1` [Example 33, 8-[(1-{[4-(2-aminoethyl)-1H-imidazol-1-yl]acetyl}azetidin-3-yl)oxy]-4,4-dihydroxy-5-oxa-4-boranuidabicyclo[4.4.0]deca-l(6),7,9-triene-7-carboxylic acid disodium salt], in assay [2], the “Decrease … K. pneumoniae ATCC BAA-2344 (KPC)” value was “A (MIC of MEPM decreasing to less than 1/32 in combination with a test compound is indicated by A)” and the “Decrease of MIC of MEPM … (OXA-48)” value was “B (decreasing from 1/32 to 1/16 is indicated by B)”.
On to `O=C(O)c1c(OC2CN(C(=O)c3ccc(O)c(O)c3)C2)ccc2c1OB(O)CC2` [Example 34, 7-{[1-(3,4-dihydroxybenzoyl)azetidin-3-yl]oxy}-2-hydroxy-3,4-dihydro-2H-1,2-benzoxaborinine-8-carboxylic acid], for which, in assay [2], the “Decrease … K. pneumoniae ATCC BAA-2344 (KPC)” value is listed as “A (MIC of MEPM decreasing to less than 1/32 in combination with a test compound is indicated by A)” and the “Decrease of MIC of MEPM … (OXA-48)” value is given as “B (decreasing from 1/32 to 1/16 is indicated by B)”.
For the compound `O=C(O)c1c(OC2CN(C(=O)NO)C2)ccc2c1OB(O)CC2` [Example 35, 2-hydroxy-7-{[1-(hydroxycarbamoyl)azetidin-3-yl]oxy}-3,4-dihydro-2H-1,2-benzoxaborinine-8-carboxylic Acid], in assay [2], the “Decrease of MIC of MEPM in combination with a test compound, E. coli ATCC BAA-2340 (KPC)” value is on record as “A (MIC of MEPM decreasing to less than 1/32 in combination with a test compound is indicated by A)”; the “Decrease … K. pneumoniae ATCC BAA-2344 (KPC)” value is on record as “A (MIC of MEPM decreasing to less than 1/32 in combination with a test compound is indicated by A)”; the “Decrease of MIC of MEPM … (OXA-48)” value is “B (decreasing from 1/32 to 1/16 is indicated by B)”.
Turning to `Cl.Cl.NC(C(=O)N1CC(Oc2ccc3c(c2C(=O)O)OB(O)CC3)C1)c1c[nH]cn1` (stereo not shown) [Example 40, 7-({1-[2-amino-2-(1H-imidazol-4-yl)(2H)ethanoyl]azetidin-3-yl}oxy)-2-hydroxy-3,4-dihydro-2H-1,2-benzoxaborinine-8-carboxylic Acid Dihydrochloride], the MIC of MEPM in combination with a test compound in assay [1] (setting [3]) and in assay [1] (setting [4]) was 0.063 µg/mL each time.
Take `O=C(O)c1c(OC2CN(C(=O)C[C@@H]3CCCN3)C2)ccc2c1O[B-](O)(O)CC2.O=C(O)c1c(OC2CN(C(=O)C[C@@H]3CCCN3)C2)ccc2c1O[B-](O)(O)CC2.[Na+].[Na+]` [Example 127, 4,4-dihydroxy-8-[(1-{[(2S)-pyrrolidin-2-yl]acetyl}azetidin-3-yl)oxy]-5-oxa-4-boranuidabicyclo[4.4.0]deca-l(6),7,9-triene-7-carboxylic acid disodium salt]: the MIC of MEPM in combination with a test compound in assay [1] (setting [3]) and in assay [1] (setting [4]) was at most 0.063 µg/mL in each case.
`C[C@@H](O)[C@H]1C(=O)N2C(C(=O)O)=C(S[C@@H]3CN[C@H](C(=O)N(C)C)C3)[C@H](C)[C@H]12` [MEPM, meropenem, reference compound]: the “MIC of MEPM alone” value in assay [1] (E. coli ATCC BAA-2340 (KPC)) was 4 and 8; in assay [1] (setting [4]), 2 and 1.
